The record followed here is US7115611B2, “Phenyl derivatives, their manufacture and use as pharmaceutical agents” (Hoffmann-la Roche Inc., priority 2003, dated 2006).

`Cc1cc(SC(C)c2ccc(-c3ccc(C(F)(F)F)cc3)nc2C)ccc1OCC(=O)O` (racemic) [Example 17, [rac]-(2-Methyl-4-{1-[2-methyl-6-(4-trifluoromethyl-phenyl)-pyridin-3-yl]-ethylsulfanyl}-phenoxy)-acetic acid] registered a melting point of 115 to 117 °C.
Regarding `CCC(Sc1ccc(OCC(=O)O)c(C)c1)c1ccc(-c2ccc(C(F)(F)F)cc2)nc1C` (racemic) [Example 18, [rac]-(2-Methyl-4-{1-[2-methyl-6-(4-trifluoromethyl-phenyl)-pyridin-3-yl]-propylsulfanyl}-phenoxy)-acetic acid], the melting point is 126 to 128 °C.
In turn, `COCCCc1cc(N(C)Cc2ccc(-c3ccc(C(F)(F)F)cc3)nc2C)ccc1OCC(=O)O` [Example 1, (2-(3-Methoxy-propyl)-4-{methyl-[2-methyl-6-(4-trifluoromethyl-phenyl)-pyridin-3-ylmethyl]-amino}-phenoxy)-acetic acid] gave a melting point of 72 to 73 °C.
With `Cc1cc(N(C)Cc2ccc(-c3ccc(C(F)(F)F)cc3)nc2C)cc(C)c1OCC(=O)O` [Example 7, (2,6-Dimethyl-4-{methyl-[2-methyl-6-(4-trifluoromethyl-phenyl)-pyridin-3-ylmethyl]-amino}-phenoxy)-acetic acid], the melting point lay in the range of 137 to 138 °C.
Consider `Cc1cc(OCc2ccc(-c3ccc(C(F)(F)F)cc3)nc2)ccc1OC(C)(C)C(=O)O` [Example 9, 2-Methyl-2-{2-methyl-4-[6-(4-trifluoromethyl-phenyl)-pyridin-3-ylmethoxy]-phenoxy}-propionic acid], for which the melting point lay in the range of 149 to 151 °C.
In the case of `Cc1cc(OCc2ccc(-c3ccc(OC(F)(F)F)cc3)nc2)ccc1OC(C)(C)C(=O)O` [Example 10, 2-Methyl-2-{2-methyl-4-[6-(4-trifluoromethoxy-phenyl)-pyridin-3-ylmethoxy]-phenoxy}-propionic acid], the melting point was 146 to 148 °C.
Regarding `Cc1cc(N(C)Cc2ccc(-c3ccc(Cl)cc3)nc2)ccc1OCC(=O)O` [Example 12, (4-{[6-(4-Chloro-phenyl)-pyridin-3-ylmethyl]-methyl-amino}-2-methyl-phenoxy)-acetic acid], the melting point lay within 174 to 176 °C.
Compound `Cc1cc(N(C)Cc2ccc(-c3ccc(OC(F)(F)F)cc3)nc2)ccc1OCC(=O)O` [Example 13, (2-Methyl-4-{methyl-[6-(4-trifluoromethoxy-phenyl)-pyridin-3-ylmethyl]-amino}-phenoxy)-acetic acid] displayed a melting point of 137 to 138 °C.
The compound `COCCCc1cc(N(C)Cc2ccc(-c3ccc(OC(F)(F)F)cc3)nc2)ccc1OCC(=O)O` [Example 14, (2-(3-Methoxy-propyl)-4-{methyl-[6-(4-trifluoromethoxy-phenyl)-pyridin-3-ylmethyl]-amino}-phenoxy)-acetic acid] had a melting point of 73 to 75 °C.
`Cc1cc(N(C)Cc2ccc(-c3ccc(C(F)(F)F)cc3)nc2)ccc1OCC(=O)O` [Example 15, (2-Methyl-4-{methyl-[6-(4-trifluoromethyl-phenyl)-pyridin-3-ylmethyl]-amino}-phenoxy)-acetic acid] showed a melting point of 199 °C.
Regarding `COCCCc1cc(N(C)Cc2ccc(-c3ccc(C(F)(F)F)cc3)nc2)ccc1OCC(=O)O` [Example 16, (2-(3-Methoxy-propyl)-4-{methyl-[6-(4-trifluoromethyl-phenyl)-pyridin-3-ylmethyl]-amino}-phenoxy)-acetic acid], the melting point lay within 72 to 76 °C.
For the compound `Cc1cc(OCc2ccc(-c3ccc(F)c(C(F)(F)F)c3)nc2C)ccc1OC(C)(C)C(=O)O` [Example 24, 2-{4-[6-(4-Fluoro-3-trifluoromethyl-phenyl)-2-methyl-pyridin-3-ylmethoxy]-2-methyl-phenoxy}-2-methyl-propionic acid], the melting point was in the range of 141 to 143 °C.
On to `Cc1cc(OCc2ccc(-c3ccc(C(F)(F)F)cc3)nc2C)ccc1OC(C)(C)C(=O)O` [Example 34, 2-Methyl-2-{2-methyl-4-[2-methyl-6-(4-trifluoromethyl-phenyl)-pyridin-3-ylmethoxy]-phenoxy}-propionic acid], for which the melting point lay within 164 to 165 °C.
`Cc1cc(OCc2ccc(-c3ccc(C(F)(F)F)c(F)c3)nc2C)ccc1OC(C)(C)C(=O)O` [Example 38, 2-{4-[6-(3-Fluoro-4-trifluoromethyl-phenyl)-2-methyl-pyridin-3-ylmethoxy]-2-methyl-phenoxy}-2-methyl-propionic acid] showed a melting point of 175 to 176 °C.
`Cc1cc(OCc2ccc(-c3ccc(OC(F)(F)F)cc3)nc2C)ccc1OC(C)(C)C(=O)O` [Example 39, 2-Methyl-2-{2-methyl-4-[2-methyl-6-(4-trifluoromethoxy-phenyl)-pyridin-3-ylmethoxy]-phenoxy}-propionic acid] displayed a melting point of 149 to 151 °C.
On to `Cc1cc(OCc2ccc(-c3ccc(C(F)(F)F)cc3)nc2C2CC2)ccc1OC(C)(C)C(=O)O` [Example 40, 2-{4-[2-Cyclopropyl-6-(4-trifluoromethyl-phenyl)-pyridin-3-ylmethoxy]-2-methyl-phenoxy}-2-methyl-propionic acid], for which the melting point lay within 170 to 171 °C.
Take `Cc1cc(OCc2ccc(-c3ccc(C(F)(F)F)cc3)nn2)ccc1OC(C)(C)C(=O)O` [Example 44, 2-Methyl-2-{2-methyl-4-[6-(4-trifluoromethyl-phenyl)-pyridazin-3-ylmethoxy]-phenoxy]-propionic acid]: the melting point was in the range of 191 to 192 °C.
`COCc1nc(-c2ccc(C(F)(F)F)cc2)ccc1COc1ccc(OC(C)(C)C(=O)O)c(C)c1` [Example 45, 2-{4-[2-Methoxymethyl-6-(4-trifluoromethyl-phenyl)-pyridin-3-ylmethoxy]-2-methyl-phenoxy}-2-methyl-propionic acid] returned a melting point of 121 to 122 °C.
Next, `CCOCCc1nc(-c2ccc(C(F)(F)F)nc2)ncc1COc1ccc(OC(C)(C)C(=O)O)c(C)c1` [Example 101, 2-{4-[4-(2-Ethoxy-ethyl)-2-(6-trifluoromethyl-pyridin-3-yl)-pyrimidin-5-ylmethoxy]-2-methyl-phenoxy}-2-methyl-propionic acid]: 122 to 124 °C (dec.).
For the compound `COCCc1nc(-c2ccc(C(F)(F)F)nc2)ncc1COc1ccc(OC(C)(C)C(=O)O)c(C)c1` [Example 102, 2-{4-[4-(2-Methoxy-ethyl)-2-(6-trifluoromethyl-pyridin-3-yl)-pyrimidin-5-ylmethoxy]-2-methyl-phenoxy}-2-methyl-propionic acid], the melting point was 140.5 to 141.5 °C (dec.).
Turning to `Cc1cc(OCc2cnc(-c3ccc(C(F)(F)F)nc3)nc2CCO)ccc1OC(C)(C)C(=O)O` [Example 103, 2-{4-[4-(2-Hydroxy-ethyl)-2-(6-trifluoromethyl-pyridin-3-yl)-pyrimidin-5-ylmethoxy]-2-methyl-phenoxy}-2-methyl-propionic acid], the melting point was 187 to 188 °C (dec.).
Take `COCc1nc(-c2ccc(C(F)(F)F)cc2)ncc1COc1ccc(OC(C)(C)C(=O)O)c(C)c1` [Example 104, 2-{4-[4-Methoxymethyl-2-(4-trifluoromethyl-phenyl)-pyrimidin-5-ylmethoxy]-2-methyl-phenoxy}-2-methyl-propionic acid]: the melting point was 120 to 121 °C.
The figure for `Cc1cc(OCc2cnc(-c3ccc(C(F)(F)F)nc3)nc2C2CC2)ccc1OC(C)(C)C(=O)O` [Example 105, 2-{4-[4-Cyclopropyl-2-(6-trifluoromethyl-pyridin-3-yl)-pyrimidin-5-ylmethoxy]-2-methyl-phenoxy}-2-methyl-propionic acid] is 185 to 185.5 °C; for `Cc1c(OCc2cnc(-c3ccc(C(F)(F)F)cc3)nc2C2CC2)ccc(OC(C)(C)C(=O)O)c1C` [Example 106, 2-{4-[4-Cyclopropyl-2-(4-trifluoromethyl-phenyl)-pyrimidin-5-ylmethoxy]-2,3-dimethyl-phenoxy}-2-methyl-propionic acid] it is 214 to 215 °C (dec.).
The figure for `Cc1cc(OCc2cnc(-c3ccc(C(F)(F)F)cc3)nc2C(F)(F)F)ccc1OC(C)(C)C(=O)O` [Example 107, 2-Methyl-2-{2-methyl-4-[4-trifluoromethyl-2-(4-trifluoromethyl-phenyl)-pyrimidin-5-ylmethoxy]-phenoxy}-propionic acid] is 149 to 151 °C (dec.).
In turn, `Cc1cc(OCc2cnc(-c3ccc(C(F)(F)F)cc3)cc2C(F)(F)F)ccc1OC(C)(C)C(=O)O` [Example 108, 2-Methyl-2-{2-methyl-4-[4-trifluoromethyl-6-(4-trifluoromethyl-phenyl)-pyridin-3-ylmethoxy]-phenoxy}-propionic acid] yielded a melting point of 148 to 149 °C.
In the case of `Cc1cc(OCc2cnc(-c3ccc(OC(F)(F)F)cc3)cc2Cl)ccc1OC(C)(C)C(=O)O` [Example 109, 2-{4-[4-Chloro-6-(4-trifluoromethoxy-phenyl)-pyridin-3-ylmethoxy]-2-methyl-phenoxy}-2-methyl-propionic acid], the melting point is 179 to 181 °C (dec.).
On to `Cc1cc(OCc2cnc(-c3ccc(C(F)(F)F)cc3)nc2CCO)ccc1OC(C)(C)C(=O)O` [Example 110, 2-{4-[4-(2-Hydroxy-ethyl)-2-(4-trifluoromethyl-phenyl)-pyrimidin-5-ylmethoxy]-2-methyl-phenoxy}-2-methyl-propionic acid], for which the melting point is 155 to 155.5 °C.
With `Cc1cc(OCc2cnc(-c3ccc(OC(F)(F)F)cc3)nc2C(F)(F)F)ccc1OC(C)(C)C(=O)O` [Example 111, 2-Methyl-2-{2-methyl-4-[2-(4-trifluoromethoxy-phenyl)-4-trifluoromethyl-pyrimidin-5-ylmethoxy]-phenoxy}-propionic acid], the melting point lay within 153.5 to 154.5 °C.
In turn, `COCCc1nc(-c2ccc(C(F)(F)F)cc2)ncc1COc1ccc(OC(C)(C)C(=O)O)c(C)c1` [Example 140, 2-{4-[4-(2-Methoxy-ethyl)-2-(4-trifluoromethyl-phenyl)-pyrimidin-5-ylmethoxy]-2-methyl-phenoxy}-2-methyl-propionic acid] came in with a melting point of 119.5 to 120 °C.
Next, `CC(C)(Oc1ccc(OCc2cnc(-c3ccc(C(F)(F)F)cc3)nc2C2CC2)c(F)c1)C(=O)O` [Example 141, 2-{4-[4-Cyclopropyl-2-(4-trifluoromethyl-phenyl)-pyrimidin-5-ylmethoxy]-3-fluoro-phenoxy}-2-methyl-propionic acid]: 177.5 to 178 °C.

Broadly, the melting point is the temperature, or range, at which the solid turns liquid.
